Measured values: the NIST ThermoML archive (doi:10.1021/acs.jced.8b00132)
“And” between values parts separate entries of the source, which are not always exact repeats. Identical values can stand only once.

Conditions: Gas

O=C(C(F)(F)C(F)(F)F)C(F)(C(F)(F)F)C(F)(F)F [dodecafluoro-2-methylpentan-3-one]
Conditions	thermal conductivity
473.39 K, 1887 kPa, transient hot wire	0.02688 W/m/K
473.39 K, 22521 kPa, transient hot wire	0.05152 W/m/K
473.39 K, 49215 kPa, transient hot wire	0.06271 W/m/K
473.39 K, 49255 kPa, transient hot wire	0.06285 W/m/K
473.4 K, 22522 kPa, transient hot wire	0.05154 W/m/K
473.4 K, 33946 kPa, transient hot wire	0.05711 W/m/K
473.42 K, 7819 kPa, transient hot wire	0.04151 W/m/K
473.44 K, 47 kPa, hot wire	0.02441 W/m/K
473.44 K, 201 kPa, hot wire	0.0244 W/m/K
473.44 K, 7822 kPa, transient hot wire	0.0416 W/m/K
473.44 K, 49246 kPa, transient hot wire	0.06304 W/m/K
473.45 K, 47 kPa, hot wire	0.02432 W/m/K
473.45 K, 606 kPa, hot wire	0.02611 W/m/K
473.45 K, 49207 kPa, transient hot wire	0.06277 W/m/K
473.45 K, 49209 kPa, transient hot wire	0.06279 W/m/K
473.45 K, 49249 kPa, transient hot wire	0.06286 W/m/K
473.46 K, 202 kPa, hot wire	0.02416 W/m/K
473.46 K, 606 kPa, hot wire	0.02602 W/m/K
473.46 K, 1913 kPa, transient hot wire	0.0269 W/m/K
473.46 K, 10825 kPa, transient hot wire	0.04418 W/m/K
473.46 K, 10827 kPa, transient hot wire	0.04414 W/m/K
473.47 K, 33946 kPa, transient hot wire	0.05693 W/m/K
473.48 K, 419 kPa, hot wire	0.02531 W/m/K
473.48 K, 1914 kPa, transient hot wire	0.027 W/m/K
473.48 K, 22521 kPa, transient hot wire	0.05152 W/m/K
473.48 K, 33946 kPa, transient hot wire	0.05688 W/m/K
473.49 K, 418 kPa, hot wire	0.02526 W/m/K
473.49 K, 1887 kPa, transient hot wire	0.027 W/m/K
473.49 K, 15492 kPa, transient hot wire	0.04746 W/m/K
473.49 K, 49134 kPa, transient hot wire	0.06279 W/m/K
473.5 K, 1887 kPa, transient hot wire	0.02709 W/m/K
473.51 K, 1475 kPa, transient hot wire	0.02577 W/m/K
473.51 K, 49242 kPa, transient hot wire	0.0628 W/m/K
473.52 K, 1475 kPa, transient hot wire	0.02566 W/m/K
473.52 K, 7821 kPa, transient hot wire	0.04156 W/m/K
473.52 K, 7822 kPa, transient hot wire	0.04146 W/m/K
473.53 K, 10824 kPa, transient hot wire	0.04374 W/m/K
473.53 K, 49248 kPa, transient hot wire	0.06293 W/m/K
473.54 K, 46 kPa, hot wire	0.0245 W/m/K
473.54 K, 201 kPa, hot wire	0.02457 W/m/K
473.55 K, 201 kPa, hot wire	0.02434 W/m/K
473.55 K, 839 kPa, transient hot wire	0.02508 W/m/K
473.55 K, 10823 kPa, transient hot wire	0.0442 W/m/K
473.55 K, 22519 kPa, transient hot wire	0.05152 W/m/K
473.55 K, 33944 kPa, transient hot wire	0.05699 W/m/K
473.55 K, 33949 kPa, transient hot wire	0.05683 W/m/K
473.56 K, 46 kPa, hot wire	0.02434 W/m/K
473.56 K, 22522 kPa, transient hot wire	0.05162 W/m/K
473.57 K, 840 kPa, transient hot wire	0.02498 W/m/K
473.58 K, 1912 kPa, transient hot wire	0.02703 W/m/K and 0.02697 W/m/K
473.58 K, 15493 kPa, transient hot wire	0.04744 W/m/K
473.6 K, 604 kPa, transient hot wire	0.02513 W/m/K
473.6 K, 15489 kPa, transient hot wire	0.04749 W/m/K
473.61 K, 605 kPa, transient hot wire	0.02525 W/m/K
473.62 K, 33950 kPa, transient hot wire	0.05685 W/m/K
473.63 K, 10824 kPa, transient hot wire	0.04429 W/m/K
473.64 K, 10823 kPa, transient hot wire	0.04414 W/m/K
473.65 K, 1476 kPa, transient hot wire	0.02571 W/m/K
473.66 K, 1476 kPa, transient hot wire	0.02567 W/m/K
473.67 K, 429 kPa, transient hot wire	0.02546 W/m/K
473.67 K, 15488 kPa, transient hot wire	0.04746 W/m/K
473.67 K, 22520 kPa, transient hot wire	0.05153 W/m/K
473.68 K, 430 kPa, transient hot wire	0.02555 W/m/K
473.71 K, 842 kPa, transient hot wire	0.02515 W/m/K
473.71 K, 1912 kPa, transient hot wire	0.02721 W/m/K
473.71 K, 1913 kPa, transient hot wire	0.02727 W/m/K
473.71 K, 10824 kPa, transient hot wire	0.04392 W/m/K
473.72 K, 841 kPa, transient hot wire	0.02507 W/m/K
473.74 K, 10822 kPa, transient hot wire	0.04424 W/m/K
473.75 K, 22523 kPa, transient hot wire	0.05151 W/m/K and 0.05152 W/m/K
473.77 K, 607 kPa, transient hot wire	0.02516 W/m/K and 0.02531 W/m/K
473.77 K, 15488 kPa, transient hot wire	0.04755 W/m/K
473.78 K, 1476 kPa, transient hot wire	0.02572 W/m/K
473.78 K, 15486 kPa, transient hot wire	0.04744 W/m/K
473.79 K, 1476 kPa, transient hot wire	0.02574 W/m/K
473.81 K, 1914 kPa, transient hot wire	0.02747 W/m/K
473.81 K, 10823 kPa, transient hot wire	0.0442 W/m/K and 0.04427 W/m/K
473.82 K, 427 kPa, transient hot wire	0.02562 W/m/K
473.82 K, 428 kPa, transient hot wire	0.02569 W/m/K
473.82 K, 1914 kPa, transient hot wire	0.0274 W/m/K
473.85 K, 15487 kPa, transient hot wire	0.04761 W/m/K
473.87 K, 15485 kPa, transient hot wire	0.04754 W/m/K
473.88 K, 841 kPa, transient hot wire	0.02504 W/m/K
473.89 K, 841 kPa, transient hot wire	0.02504 W/m/K
